Test [1] concerns Omicron variant (B.1.1.529). The experiment in a line: Post-exposure antiviral assay in hamsters, Omicron. The class given is in vivo.
Another test has as its system SARS-CoV-2 Beta variant. The note with it: 18 h.
A further test concerns SARS-CoV-2 Alpha variant. To be noted: 18 h.
A further test relates to SARS-CoV-2 Delta variant. The note with it: 18 h.
The subject of test [2] is SARS-CoV-2 (B.1.1.63, D614G). The class given is cell-based.

Positions of bridges follow the written chain, without caps; N, C: chain ends. Chains are numbered I, II in the order given. No end group written: not given here.

The IC50 is the concentration needed to halve the response being measured. As to “I: GAICHPVFCPRRYKQIGTCGLPGTKCCKKPKK / II: GAICHPVFCPRRYKQIGTCGLPGTKCCKKPK / III: GAICHPVFCPRRYKQIGTCGLPGTKCCKKP / IV: GAICHPVFCPRRYKQIGTCGLPGTKCCKKP (amide I:31-IV:C, I:32-II:C, II:31-III:C; cysteines drawn unpaired) [4H30]”, the “Omicron variant titers in the nasal wash” value in test [1] ([…], plaque assay, n = 4) was “significantly reduce”. For the same substance, the “inhibition of Omicron replication in hamster lungs” value in test [1] (hamster, in vivo) is reported as “more than 20 fold”. Moreover, the IC50 in the test with SARS-CoV-2 Beta variant worked out at 0.89 mg/L; in the test on SARS-CoV-2 Alpha variant, 0.75 mg/L; in the test on SARS-CoV-2 Delta variant, 0.79 mg/L. Also, the “inhibition of SARS-CoV-2 replication when added at 6 hpi” value in test [2] was “significantly inhibit”.

For the origin of these results see publication PMC9243000 (Cell Discovery, 2022).
